Data from patent US20160090556A1, “PRODUCTS COMPRISING MALODOR REDUCTION MATERIALS” (The Procter & Gamble Company, priority 2014, published 2016).
Like-named read-outs stand apart in the source and are kept apart here.

Experiment: Liquid dish neat product liquid-air partition coefficient
Format: physicochemical
Conditions: for Comment Code: Log of liquid dish neat product liquid-air partition coefficient: code letters K, L
[1] = class code letter within Comment Code

Row | Compound | Comment Code: Log of liquid dish neat product liquid-air partition coefficient | Log of liquid dish neat product liquid-air partition coefficient (Comment Code K/L) [1] | Log of liquid dish neat product liquid-air partition coefficient (Comment Code K/L)
1 | CCCCCCCC(=O)OCCC(C)C [Material 237] | K (Log of liquid dish neat product liquid-air partition coefficient greater than or equal to −7) |  | 
2 | Cc1ccc(C(C)C)cc1O [Material 575] | K (Log of liquid dish neat product liquid-air partition coefficient greater than or equal to −7) |  | 
3 | C=CC1(C)CCC(C(C)(C)O)CC1C(=C)C (centres unmarked) [Material 414] |  | K (Log of liquid dish neat product liquid-air partition coefficient greater than or equal to −7) | 
4 | CC(C)c1cccc(C(C)CC=O)c1 (centres unmarked) [Material 914] |  |  | K (Log of liquid dish neat product liquid-air partition coefficient greater than or equal to −7)
5 | CC(C)CC1CC(C)(O)CCO1 (centres unmarked) [Material 350] |  | K (Log of liquid dish neat product liquid-air partition coefficient greater than or equal to −7) | 
6 | CC(=O)CCc1ccc(O)cc1 [Material 1002] | K (Log of liquid dish neat product liquid-air partition coefficient greater than or equal to −7) |  | 
7 | C=CCc1ccc2c(c1)OCO2 [Material 1021] |  |  | K (Log of liquid dish neat product liquid-air partition coefficient greater than or equal to −7)
8 | N#CC=Cc1ccccc1 [Material 549] | K (Log of liquid dish neat product liquid-air partition coefficient greater than or equal to −7) |  | 
9 | CCCCCCOC(=O)c1ccco1 [Material 275] | K (Log of liquid dish neat product liquid-air partition coefficient greater than or equal to −7) |  | 
10 | C=CC(C)CCCC(C)(C)O (centres unmarked) [Material 437] | K (Log of liquid dish neat product liquid-air partition coefficient greater than or equal to −7) |  | 
11 | C=C1C2CCC(C)(OCC)C1CCC2(C)C (centres unmarked) [Material 606] |  |  | K (Log of liquid dish neat product liquid-air partition coefficient greater than or equal to −7)
12 | CCOCCOCCO [Material 579] | K (Log of liquid dish neat product liquid-air partition coefficient greater than or equal to −7) |  | 
13 | C=CCCC(=O)C1=CCCC(C)(C)C1 [Material 697] |  |  | K (Log of liquid dish neat product liquid-air partition coefficient greater than or equal to −7)
14 | CCC(C)(C)C1CCC(O)CC1 (centres unmarked) [Material 995] | K (Log of liquid dish neat product liquid-air partition coefficient greater than or equal to −7) |  | 
15 | CCCCCCCCCCCC#N [Material 498] |  | K (Log of liquid dish neat product liquid-air partition coefficient greater than or equal to −7) | 
16 | CCCCCCCCCCC=O [Material 1102] |  |  | K (Log of liquid dish neat product liquid-air partition coefficient greater than or equal to −7)
17 | CCCCCCCCCCCC(=O)OCCC(C)C [Material 238] |  | K (Log of liquid dish neat product liquid-air partition coefficient greater than or equal to −7) | 
18 | C/C(=C/C#N)CCc1ccccc1 [Material 892] |  |  | K (Log of liquid dish neat product liquid-air partition coefficient greater than or equal to −7)
19 | CC/C=C\C/C=C\CCO [Material 546] |  | K (Log of liquid dish neat product liquid-air partition coefficient greater than or equal to −7) | 
20 | C=CCc1ccc(OC)cc1 [Material 119] |  | K (Log of liquid dish neat product liquid-air partition coefficient greater than or equal to −7) | 
